# Assay results taken from patent publication US20220340547A1, “INDOLE DERIVATIVE-CONTAINING INHIBITOR, PREPARATION METHOD THEREFOR AND APPLICATION THEREOF” (Shanghi Hansoh Biosoh Biomedical Co., Ltd., priority 2019, published 2022).
# pIC50: −log10 of the molar value.
# Columns and labels:
# [1] = biological target: EGFR D770_N771insNPG (Homo sapiens, UniProt P00533, INS770NPG); experiment: TR-FRET inhibition of kinase activity of EGFR exon 20 insertion mutation; type: biochemical
# From the text: Determination of the Inhibitory Effect of the Compound of the Present Invention on the Kinase Activity of EGFR Exon 20 Insertion Mutation
# Experimental objective: The objective of this test example is to determine the inhibitory effect of the compound on the kinase activity of EGFR exon 20 insertion mutation.
# Experimental process: The experiment applied the TR-FRET (time-resolved fluorescence resonance energy transfer) method to study the inhibitory effect of the compound on the kinase activity of EGFR exon 20 insertion mutation. The experiment was carried out in a 384-well plate. Experimental buffer (50 mM HEPES, 1 mM EGTA, 10 mM MgCl2, 2 mM DTT, 0.01% Tween-20) was formulated. The compound was diluted in gradient to different concentrations with the experimental buffer. 2.5 μL of the solution was added to each well of the 384-well plate. 2.5 μL of diluted EGFR kinase solution (0.001-0.5 nM) was added, and the plate was incubated at room temperature for 10 minutes. 5 μL of ULight-poly GT/ATP mixed solution was added, and the plate was incubated at room temperature for 30 to 60 minutes. 5 μL of EDTA stop solution and 5 μL of Eu-labeled antibody detection solution were added, and the plate was incubated at room temperature for 1 hour.
# (§1) Experimental Data Processing Method:
# The concentration and inhibition rate were fitted to a nonlinear regression curve by Graphpad Prism software to obtain the IC50 value.
# [2] = biological target: Ba/F3 EGFR-D770-N771ins_SVD (Homo sapiens, UniProt P00533, DUP768-770, cells depend on it); experiment: Proliferation of Ba/F3 EGFR mutant cell line (CellTiter-Glo); type: cell-based, mouse; conditions: 72 h to 144 h, read-out: Ba/F3 EGFR-D770-N771ins_SVD IC50
# Sequence of Ba/F3 EGFR-D770-N771ins_SVD (P00533 with tags, fused parts or gaps DUP768-770): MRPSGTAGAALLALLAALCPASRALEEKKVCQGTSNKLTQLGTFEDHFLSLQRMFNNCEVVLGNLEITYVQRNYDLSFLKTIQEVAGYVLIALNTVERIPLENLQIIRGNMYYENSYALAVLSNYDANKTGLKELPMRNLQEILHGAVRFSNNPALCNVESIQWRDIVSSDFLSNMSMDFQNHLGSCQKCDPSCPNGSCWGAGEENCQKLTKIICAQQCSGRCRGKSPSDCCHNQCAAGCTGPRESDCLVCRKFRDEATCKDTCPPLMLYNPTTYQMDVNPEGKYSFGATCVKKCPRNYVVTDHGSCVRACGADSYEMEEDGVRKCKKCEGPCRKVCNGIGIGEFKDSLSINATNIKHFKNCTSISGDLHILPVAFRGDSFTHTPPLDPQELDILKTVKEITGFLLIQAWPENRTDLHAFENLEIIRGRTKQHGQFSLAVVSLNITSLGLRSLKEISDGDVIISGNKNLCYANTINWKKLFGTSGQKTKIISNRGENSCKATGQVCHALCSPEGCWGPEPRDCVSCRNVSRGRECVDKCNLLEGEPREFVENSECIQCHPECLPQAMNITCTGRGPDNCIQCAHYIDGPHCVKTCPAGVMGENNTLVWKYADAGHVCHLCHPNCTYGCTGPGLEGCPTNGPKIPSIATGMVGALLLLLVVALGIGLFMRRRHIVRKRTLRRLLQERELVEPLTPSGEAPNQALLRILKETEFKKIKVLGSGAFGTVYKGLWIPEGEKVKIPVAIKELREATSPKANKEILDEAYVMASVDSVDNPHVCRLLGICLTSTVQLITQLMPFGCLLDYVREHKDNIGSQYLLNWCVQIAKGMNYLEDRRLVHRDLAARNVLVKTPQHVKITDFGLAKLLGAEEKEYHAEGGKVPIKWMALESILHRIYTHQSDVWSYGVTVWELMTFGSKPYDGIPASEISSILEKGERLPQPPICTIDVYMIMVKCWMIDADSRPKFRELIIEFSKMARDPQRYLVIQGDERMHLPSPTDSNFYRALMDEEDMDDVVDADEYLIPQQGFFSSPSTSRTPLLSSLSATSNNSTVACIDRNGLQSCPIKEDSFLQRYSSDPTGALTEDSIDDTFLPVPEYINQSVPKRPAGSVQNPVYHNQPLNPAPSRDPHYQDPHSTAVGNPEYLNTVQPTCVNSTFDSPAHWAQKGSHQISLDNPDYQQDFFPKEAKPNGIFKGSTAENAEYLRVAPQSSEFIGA
# Protocol: Determination of the Inhibitory Effect of the Compound of the Present Invention on the Proliferation of Ba/F3 EGFR Mutant Cell Line and A431 Cell Line
# (§2) Experimental objective: The objective of this test example is to determine the inhibitory effect of the compound on the proliferation of Ba/F3 EGFR mutant cell line and A431 cell line
# (§3) Experimental instruments: Microplate reader (BioTek Synergy H1), pipette (Eppendorf & Rainin).
# Ba/F3 EGFR mutant cells were cultured, and harvested after reaching a suitable density. The cells were adjusted to an appropriate cell concentration with the complete medium. The cell suspension were spread on a 96-well plate (90 μL per well), and the plate was placed in a 37° C., 5% CO2 incubator overnight to let the cells adhere to the wall. Solutions of the compound at different concentrations were formulated with DMSO and culture medium. Solvent control was set. […] CellTiter-Glo solution was added and mixed well by shaking, and the plate was incubated in the dark for 10 minutes. The values were measured by BioTek Synergy H1 microplate reader.
# as §1
# (§4) The inhibition rate was calculated using the […] signal value. The concentration and inhibition rate were fitted to a nonlinear regression curve by Graphpad Prism software to obtain the IC50 value.
# [3] = tested on: A431 cell line; experiment: Proliferation of A431 cell line (CellTiter-Glo); type: cell-based; conditions: Homo sapiens, A-431, 72 h
# Protocol: Test Example 3. Determination of the Inhibitory Effect of the Compound of the Present Invention on the Proliferation of Ba/F3 EGFR Mutant Cell Line and A431 Cell Line
# as §2, §3
# A431 cells were cultured, and harvested after reaching a suitable density. The cells were adjusted to an appropriate cell concentration with the complete medium. The cell suspension were spread on a 96-well plate (90 μL per well), and the plate was placed in a 37° C., 5% CO2 incubator overnight to let the cells adhere to the wall. Solutions of the compound at different concentrations were formulated with DMSO and culture medium. Solvent control was set. The solution of the compound was added to the 96-well plate ([…]), and the plate was incubated in the 37° C., 5% CO2 incubator for 72 h. CellTiter-Glo solution was added and mixed well by shaking, and the plate was incubated in the dark for 10 minutes. The values were measured by BioTek Synergy H1 microplate reader.
# as §1, §4
# Sequence of EGFR D770_N771insNPG (P00533 with tags, fused parts or gaps INS770NPG limits assumed): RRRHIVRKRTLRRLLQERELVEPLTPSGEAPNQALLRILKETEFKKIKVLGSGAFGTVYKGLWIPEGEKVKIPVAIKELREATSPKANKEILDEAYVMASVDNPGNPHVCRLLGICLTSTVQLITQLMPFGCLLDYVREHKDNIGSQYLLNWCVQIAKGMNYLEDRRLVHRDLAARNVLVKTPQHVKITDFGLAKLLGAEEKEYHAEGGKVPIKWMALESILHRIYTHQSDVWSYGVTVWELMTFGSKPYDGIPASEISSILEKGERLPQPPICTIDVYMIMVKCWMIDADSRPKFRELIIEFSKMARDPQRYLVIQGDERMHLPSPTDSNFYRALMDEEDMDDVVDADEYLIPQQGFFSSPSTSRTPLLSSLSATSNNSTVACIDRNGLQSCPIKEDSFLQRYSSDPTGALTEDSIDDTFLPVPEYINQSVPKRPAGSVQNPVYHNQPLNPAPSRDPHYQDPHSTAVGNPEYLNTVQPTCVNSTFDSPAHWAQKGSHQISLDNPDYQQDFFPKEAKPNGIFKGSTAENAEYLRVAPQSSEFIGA
pIC50 [1],GI50 [2] [nM],pIC50 [3],Compound
9.26,34.6,6.88,"C=CC(=O)Nc1cc(Nc2ncc(-c3ncco3)c(-c3cn(C4CC4)c4ccccc34)n2)c(OC)cc1N1C[C@@H]2CCN(C)[C@@H]2C1 (relative stereo) [Example 40, Cis N-(5-((4-(1-Cyclopropyl-1H-indol-3-yl)-5-(oxazol-2-yl)pyrimidin-2-yl)amino)-4-methoxy-2-(1-methylhexahydropyrrolo[3,4-b]pyrrol-5(1H)-yl)phenyl)acrylamide]"
9.37,24.8,6.79,"C=CC(=O)Nc1cc(Nc2ncc(C#N)c(-c3cn(C4CC4)c4ccccc34)n2)c(OC)cc1N1C[C@H]2CN(C)C[C@H]2C1 [Example 35, N-(5-((5-Cyano-4-(1-cyclopropyl-1H-indol-3-yl)pyrimidin-2-yl)amino)-4-methoxy-2-((3aR,6aS)-5-methylhexahydropyrrolo[3,4-c]pyrrol-2(1H)-yl)phenyl)acrylamide]"
–,27.1,6.36,"C=CC(=O)Nc1cc(Nc2ncc(-c3ncco3)c(-c3cn(C4CC4)c4ccccc34)n2)c(OC)cc1N1C[C@H]2CN(C)C[C@H]2C1 [Example 36, N-(5-((4-(1-Cyclopropyl-1H-indol-3-yl)-5-(oxazol-2-yl)pyrimidin-2-yl)amino)-4-methoxy-2-((3aR,6aS)-5-methylhexahydropyrrolo[3,4-c]pyrrol-2(1H)-yl)phenyl)acrylamide]"
9.35,34.6,6.84,"C=CC(=O)Nc1cc(Nc2ncc(-c3ncco3)c(-c3cn(C4CC4)c4ccccc34)n2)c(OC)cc1N(C)CC1CCCN1C (centres unmarked) [Example 38, N-(5-((4-(1-Cyclopropyl-1H-indol-3-yl)-5-(oxazol-2-yl)pyrimidin-2-yl)amino)-4-methoxy-2-(methyl((1-methylpyrrolidin-2-yl)methyl)amino)phenyl)acrylamide]"
9.00,53.4,6.68,"C=CC(=O)Nc1cc(Nc2ncc(-c3nccs3)c(-c3cn(C4CC4)c4ccccc34)n2)c(OC)cc1N1C[C@H]2CN(C)C[C@H]2C1 [Example 45, N-(5-((4-(1-Cyclopropyl-1H-indol-3-yl)-5-(thiazol-2-yl)pyrimidin-2-yl)amino)-4-methoxy-2-((3aR,6aS)-5-methylhexahydropyrrolo[3,4-c]pyrrol-2(1H)-yl)phenyl)acrylamide]"
–,33.1,7.29,"C=CC(=O)Nc1cc(Nc2ncc(-c3ccccc3)c(-c3cn(C4CC4)c4ccccc34)n2)c(OC)cc1N1C[C@H]2CN(C)C[C@H]2C1 [Example 47, N-(5-((4-(1-Cyclopropyl-1H-indol-3-yl)-5-phenylpyrimidin-2-yl)amino)-4-methoxy-2-((3aR,6aS)-5-methylhexahydropyrrolo[3,4-c]pyrrol-2(1H)-yl)phenyl)acrylamide]"
9.10,34.9,6.51,"C=CC(=O)Nc1cc(Nc2ncc(-c3ncco3)c(-c3cn(C4CC4)c4ccccc34)n2)c(OC)cc1N1CC(N(C)C)C1 [Example 52, N-(5-((4-(1-Cyclopropyl-1H-indol-3-yl)-5-(oxazol-2-yl)pyrimidin-2-yl)amino)-2-(3-(dimethylamino)azetidin-1-yl)-4-methoxyphenyl)acrylamide]"
9.30,21.7,6.74,"C=CC(=O)Nc1cc(Nc2ncc(-c3ncco3)c(-c3cn(C4CC4)c4ccccc34)n2)c(OC)cc1N1CC(N2CCCC2)C1 [Example 53, N-(5-((4-(1-Cyclopropyl-1H-indol-3-yl)-5-(oxazol-2-yl)pyrimidin-2-yl)amino)-4-methoxy-2-(3-(pyrrolidin-1-yl)azetidin-1-yl)phenyl)acrylamide]"
–,45.3,6.84,"C=CC(=O)Nc1cc(Nc2ncc(-c3ncco3)c(-c3cn(C4CC4)c4ccccc34)n2)c(OC)cc1N1CC[C@H](N(C)C)C1 [Example 56, (S)—N-(5-((4-(1-Cyclopropyl-1H-indol-3-yl)-5-(oxazol-2-yl)pyrimidin-2-yl)amino)-2-(3-(dimethylamino)pyrrolidin-1-yl)-4-methoxyphenyl)acrylamide]"
9.09,28.1,6.95,"C=CC(=O)Nc1cc(Nc2ncc(-c3ncco3)c(-c3cn(C4CC4)c4ccccc34)n2)c(OC)cc1N1CC[C@@H](N(C)C)C1 [Example 57, (R)—N-(5-((4-(1-Cyclopropyl-1H-indol-3-yl)-5-(oxazol-2-yl)pyrimidin-2-yl)amino)-2-(3-(dimethylamino)pyrrolidin-1-yl)-4-methoxyphenyl)acrylamide]"
9.41,17.4,7.54,"C=CC(=O)Nc1cc(Nc2ncc(-c3cccnc3)c(-c3cn(C4CC4)c4ccccc34)n2)c(OC)cc1N1C[C@H]2CN(C)C[C@H]2C1 [Example 64, N-(5-((4-(1-Cyclopropyl-1H-indol-3-yl)-5-(pyridin-3-yl)pyrimidin-2-yl)amino)-4-methoxy-2-((3aR,6aS)-5-methylhexahydropyrrolo[3,4-c]pyrrol-2(1H)-yl)phenyl)acrylamide]"
–,54.9,6.62,"C=CC(=O)Nc1cc(Nc2ncc(-c3ccn(C)n3)c(-c3cn(C4CC4)c4ccccc34)n2)c(OC)cc1N1C[C@H]2CN(C)C[C@H]2C1 [Example 71, N-(5-((4-(1-Cyclopropyl-1H-indol-3-yl)-5-(1-methyl-1H-pyrazol-3-yl)pyrimidin-2-yl)amino)-4-methoxy-2-((3aR,6aS)-5-methylhexahydropyrrolo[3,4-c]pyrrol-2(1H)-yl)phenyl)acrylamide]"
9.30,48.2,6.59,"C=CC(=O)Nc1cc(Nc2ncc(C#N)c(-c3cn(C4CC4)c4ccccc34)n2)c(OC)cc1N1CC[C@@H](N(C)C)C1 [Example 78, (R)—N-(5-((5-Cyano-4-(1-cyclopropyl-1H-indol-3-yl)pyrimidin-2-yl)amino)-2-(3-(dimethylamino)pyrrolidin-1-yl)-4-methoxyphenyl)acrylamide]"
9.11,49.1,6.77,"C=CC(=O)Nc1cc(Nc2ncc(C#N)c(-c3cn(C4CC4)c4ccccc34)n2)c(OC)cc1N1C[C@H]2CCN(C)[C@H]2C1 [Example 109, N-(5-((5-Cyano-4-(1-cyclopropyl-1H-indol-3-yl)pyrimidin-2-yl)amino)-4-methoxy-2-((3aR,6aR)-1-methylhexahydropyrrolo[3,4-b]pyrrol-5(1H)-yl)phenyl)acrylamide]"
9.74,21.2,7.47,"C=CC(=O)Nc1cc(Nc2ncc(C#N)c(-c3cn(C4COC4)c4ccccc34)n2)c(OC)cc1N(C)CCN(C)C [Example 111, N-(5-((5-cyano-4-(1-(oxetan-3-yl)-1H-indol-3-yl)pyrimidin-2-yl)amino)-2-((2-(dimethylamino)ethyl)(methyl)amino)-4-methoxyphenyl)acrylamide]"
9.26,45.1,6.70,"C=CC(=O)Nc1cc(Nc2ncc(C#N)c(-c3cn(C4CC4)c4ccc(OC)cc34)n2)c(OC)cc1N(C)CCN(C)C [Example 118, N-(5-((5-Cyano-4-(1-cyclopropyl-5-methoxy-1H-indol-3-yl)pyrimidin-2-yl)amino)-2-((2-(dimethylamino)ethyl)(methyl)amino)-4-methoxyphenyl)acrylamide]"
